Results from article PMC9864776, “Synthesis of Novel Polymer-Assisted Organic-Inorganic Hybrid Nanoflowers and Their Application in Cascade Biocatalysis” (Molecules, 2023).

Biological target: T1, horseradish peroxidase (HRP) (Armoracia rusticana, UniProt P00433)
T1 construct: gene PRXC1A; commercial native enzyme from horseradish, Alfa Aesar; free in solution, together with GOx
T1 sequence (P00433 31-338): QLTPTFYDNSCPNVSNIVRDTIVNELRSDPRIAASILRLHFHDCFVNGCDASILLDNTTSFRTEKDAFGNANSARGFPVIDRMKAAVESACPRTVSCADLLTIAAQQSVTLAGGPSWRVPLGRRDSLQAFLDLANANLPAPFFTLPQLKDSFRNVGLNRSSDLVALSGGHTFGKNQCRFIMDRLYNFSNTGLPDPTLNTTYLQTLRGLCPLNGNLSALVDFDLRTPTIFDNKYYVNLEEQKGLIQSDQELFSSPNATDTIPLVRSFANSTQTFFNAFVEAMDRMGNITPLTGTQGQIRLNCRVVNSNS
Assay: GOx/HRP cascade, TMB oxidation by H2O2 formed by GOx, absorbance at […] nm
Type: biochemical
Conditions: H2O2 from GOx and glucose, 0.2 M acetate buffer pH 4, 20-23 °C; free enzymes

SMILES: Cc1cc(-c2cc(C)c(N)c(C)c2)cc(C)c1N [TMB, 3,3′,5,5′-tetramethylbenzidine]
- GOx/HRP cascade, TMB oxidation by H2O2 formed by GOx, absorbance at 652 nm: the HRP used this H2O2 to oxidize a chromophore compound (TMB)
